Measurements taken from US8846880B2, “Synthetic analogues of phosphatidyl-myo-inositol mannosides with an inhibitory activity of the inflammatory response” (Centre National de la Recherche Scientifique—CNRS—, priority 2008, dated 2014).

Key:
[1] = system: TNF-α; assay: TNF-α secretion by LPS-stimulated bone-marrow-derived primary macrophages (ELISA); format: cell-based, mouse; settings: LPS 100 ng/ml, 24 hours
Method: (§1) Murine bone marrow cells were obtained from femurs of wild-type mouse lines. The cells obtained were cultured (10^6/ml) for 7 days in DMEM medium (Dulbecco's modified Eagle's medium) supplemented with 20% of horse serum and 30% of L929 cell-conditioned medium. Three days after renewal of the medium, the cell preparation comprises a homogeneous population of macrophages.
(§2) The macrophages derived from the bone marrow of wild-type mice were cultured on 96-well culture plates in the proportion of 10^5 cells per well, and were then stimulated with LPS (100 ng/ml, Escherichia. coli, serotype O111:B4, Sigma) with or without PIM analog (1-10 μg/ml). All the freeze-dried PIM analog preparations used are solubilized in DMSO and added to the cultures at a noncytotoxic maximum final concentration of 1%.
(§3) After stimulation for 24 hours, the culture supernatants were collected and analyzed for their content of TNF-α, IL-6, IL-12p40 and KC cytokines by ELISA (Duoset, R&D) and for their nitrite content by means of the Griess reaction.
(§4) The macrophages derived from the bone marrow of wild-type mice were cultured on 96-well culture plates in a proportion of 10^5 cells per well, and then stimulated with LPS (100 ng/ml, Escherichia coli, serotype […], Sigma) with isoPIM1C16C18 (SFPIM219) (1-10 μg/ml) or a DMSO control. The preparation of freeze-dried SFPIM219 which is used is solubilized in DMSO and added to the cultures at a noncytotoxic maximum final concentration of 1%.
(§5) After stimulation for 24 hours, the culture supernatents were collected and analyzed for their content of cytokines TNF-α or IL-12p40 by ELISA (R&D Duoset, Minneapolis, Mo.). The results correspond to the mean±SD of n=2 mice per genotype.
(§6) The macrophages derived from the bone marrow of wild-type mice were cultured on 96-well culture plates in a proportion of 10^5 cells per well, and then stimulated with LPS (100 ng/ml, Escherichia coli, serotype O111:B4, Sigma) with PIM1 (SFPIM145), isoPIM1C16C18 (SFPIM219) or the compounds PIM-2-mimNCOCF3 (SFPIM324 t2) and PIM-2-mimNH(SFPIM324 t8) (titrated at 1, 3, 10, 30 μg/ml) or DMSO controls. The freeze-dried SFPIM145, SFPIM219, SFPIM324 t2 and SFPIM324 t8 preparations that were used are solubilized in DMSO and added to the cultures at a noncytotoxic maximum final concentration of 1%.

[2] = system: macrophages; assay: MTT cytotoxicity / cell viability assay on the same macrophages; format: cell-based, mouse
[3] = system: IL-6; assay: IL-6 expression by primary macrophages stimulated with LPS with or without IFNγ (ELISA); format: cell-based, mouse; settings: LPS in the presence or absence of interferon-γ, 10 μg/ml (FIG. 5)
Method: as §1, §2, §3

[4] = system: IL-12p40; assay: IL-12p40 secretion by LPS-stimulated primary macrophages (ELISA); format: cell-based, mouse
Method: as §1, §2, §3, §4, §5, §6

[5] = system: KC; assay: Chemokine KC production by LPS-stimulated macrophages (ELISA); format: cell-based, mouse; settings: 10 μg/ml (FIG. 7)
Method: as §1, §2, §3

[6] = system: C57BL/6 mice; assay: In vivo model of respiratory distress: Penh by noninvasive plethysmography after intranasal LPS; parameters: species or system mouse
Method: (§7) C57BL/6 mice received the vehicle alone (saline with 1.25% DMSO) or LPS (1 μg per mouse) from Escherichia coli (serotype […]; Sigma, St Louis, Mo., USA) in the absence or in the presence of PIM1 (SFPIM135) or of isoPIM1-2C16 (SFPIM91) (50 μg/mouse), applied by nasal instillation in a volume of 40 μl under light anesthesia with ketamine-xylazine.
The resistance of the respiratory tracts was evaluated by noninvasive plethysmography over a period of 3 hours after the application of LPS. Awake mice were placed in plethysmography chambers (EMKA Technologies, Paris, France). The increase in respiratory pause (Penh), as measurement of respiratory discomfort, was recorded and analyzed using the Datanalyst Software (EMKA Technologies, Paris, France), and expressed as mean±SEM of Penh of n=2-3 individual mice per group.
TNF is essential for LPS-induced acute respiratory dysfunction, as has been shown in TNF-deficient mice. In order to determine the potential in vivo activity of PIM1 (SFPIM135) and isoPIM1-2C16 (SFPIM91), they were tested for their inhibitory activity in a murine model of acute pulmonary inflammation and respiratory distress induced by intranasal application of LPS (1 μg/mouse).
C57BL/6 mice received an intranasal application of 1 μg of LPS, and Penh was recorded for 200 minutes using noninvasive plethysmography. […]

[7] = system: C57BL/6 mice; assay: Inflammatory cell recruitment in bronchoalveolar lavage after intranasal LPS; format: in vivo, mouse
Method: as §7
(§8) The BAL fluid is collected by canulating the trachea and washing the lungs four times with 0.5 ml of cold PBS. After centrifugation at 400×g for 10 min at 4° C., the supernatant from the first lavage is stored at −70° C. for the cytokine analysis. Pools of cell pellets are counted with Trypan blue (Sigma) in a hemocytometer cell. For differential counting, the cells are stained with Diff-Quik Staining (Merz & Dade AG., Dudingen, Switzerland). Two times one hundred cells are counted.

[8] = system: KC; assay: KC in bronchoalveolar lavage fluid after intranasal LPS (ELISA); format: in vivo; settings: 24 hours after intranasal 1 μg LPS, coadministration 50 μg/mouse (FIG. 10)
Method: as §7, §8
(§9) The TNF and KC concentrations were evaluated by enzyme-linked immunosorbent assay (ELISA) in accordance with the instructions of the manufacturer (R&D Duoset, Minneapolis, Mo.).
Neutrophil recruitment depends on various factors, including chemokine KC, even though it is not critically dependent on TNF [23]. In FIG. 10, the treated mice are sacrificed 24 hours after the intranasal application of 1 μg of LPS and the bronchoalveolar fluid is analyzed in order to determine the chemokine KC content. […]

[9] = system: TNF; assay: TNF in bronchoalveolar lavage fluid after intranasal LPS (ELISA); format: in vivo; settings: coadministration 50 μg/mouse (FIG. 11)
Method: as §7, §8, §9

[10] = system: inflammatory cytokines and chemokines; assay: Additional experiments: inflammatory cytokines and chemokines in lungs exposed to endotoxins; format: in vivo
[11] = titrated at 1, 3, 10, 30 μg/ml (FIG. 15)

1-O-α-D-mannopyranosyl-2-O—[((S)-2,3-dipalmitoyloxy-propyl)phosphoryl]-D-myo-inositol [isoPIM1-2C16]
TNF-α synthesis induced in LPS-stimulated macrophages ([1]; titrated at 1, 3 and 10 μg/ml (FIG. 3)): strongly inhibits | cytotoxicity (MTT) ([2]; titrated at 1, 3 and 10 μg/ml (FIG. 4)): absence of cytotoxicity | expression of IL-6 by the macrophages [3]: also inhibited | IL-12p40 secretion in response to LPS ([4]; 1 μg/ml (FIG. 6)): inhibition | production of chemokine KC [5]: more strongly | enhancement of Penh induced by LPS ([6]; 50 μg/mouse with LPS 1 μg/mouse, nasal instillation (FIG. 8)): even more pronounced | pulmonary inflammation and resistance of the respiratory tracts in response to local endotoxins ([6]; summary of the in vivo experiments): marked inhibition | number of inflammatory cells detected in the BAL ([7]; 18 hours after application of LPS, 50 μg/mouse intranasal (FIG. 9)): partially reduced | reduction in the number of neutrophils ([7]; BAL, observed in 2 mice out of 3, 50 μg/mouse intranasal): ≤ 70% | secretion of KC in the bronchoalveolar space [8]: greatly reduced | release of TNF in the bronchoalveolar space [9]: more strongly | expression of several other inflammatory cytokines and chemokines in lungs exposed to endotoxins [10]: decrease in expression

CCCCCCCCCCCCCCCCCC(=O)OC[C@@H](COP(=O)(O)OC1C(O[C@H]2O[C@H](CO)[C@@H](O)[C@H](O)[C@@H]2O)CN(C(=O)C(F)(F)F)CC1O[C@H]1O[C@H](CO)[C@@H](O)[C@H](O)[C@@H]1O)OC(=O)CCCCCCCCCCCCCCC (stereo partly shown) [PIM-2-mimNCOCF3]
TNF secretion [1, 11]: strongly inhibit | IL-12p40 secretion in response to LPS ([4]; 10 μg/ml (FIG. 17)): virtually abolished

CCCCCCCCCCCCCCCCCC(=O)OC[C@@H](COP(=O)(O)O[C@@H]1[C@@H](O[C@H]2O[C@H](CO)[C@@H](O)[C@H](O)[C@@H]2O)CNC[C@H]1O[C@H]1O[C@H](CO)[C@@H](O)[C@H](O)[C@@H]1O)OC(=O)CCCCCCCCCCCCCCC [PIM-2-mimNH]
TNF secretion [1, 11]: inhibit less strongly | cytotoxicity (MTT cell viability) ([2]; at the highest concentration (FIG. 16)): a certain cytotoxicity | IL-12p40 secretion in response to LPS ([4]; 10 μg/ml (FIG. 17)): partially inhibit

CCCCCCCCCCCCCCCCCC(=O)OC[C@H](COP(=O)(O)O[C@@H]1[C@H](O)[C@@H](O)[C@H](O)[C@@H](O)[C@@H]1OC1O[C@H](CO)[C@@H](O)[C@H](O)[C@@H]1O)OC(=O)CCCCCCCCCCCCCCC (stereo partly drawn) [isoPIM1-C16C18, 1-O-α-D-mannopyranosyl-2-O—[((S)-2-O-hexadecanoyl-3-O-octadecanoylpropyl)phosphoryl]-D-myo-inositol]
TNF secretion ([1]; 1-10 μg/ml (FIG. 12)): strongly inhibits | TNF secretion [1, 11]: strongly inhibit | cytotoxicity on macrophages (MTT) ([2]; titrated at 1, 3 and 10 μg/ml (FIG. 13)): lack of cytotoxicity | IL-12p40 secretion in response to LPS ([4]; 1 μg/ml (FIG. 14)): greatly inhibited | IL-12p40 secretion in response to LPS ([4]; 10 μg/ml (FIG. 17)): virtually abolished
